Source: patent US20040018158A1, “Topical compositions including sunscreen compositions” (Tend Skin International, Inc., priority 1998, published 2004)

Legend:
[1] = solubility of acetylsalicylic acid in water; type: physicochemical
Description: In preparing the composition, it can be helpful to gently warm while stirring the solvent mixture to assist the acetylsalicylic acid in completely dissolving in the solvent mixture. It has been observed that the typical consumer tends to prefer a product that is homogeneous in appearance and without any visible precipitate. […] Thus, aloe vera, for example, while it is soothing to the skin, tends to quickly hydrolyze acetylsalicylic acid. The hydrolysis of the acetylsalicylic acid would substantially and undesirably shorten the shelf life of the product.

[2] = saturation concentration of acetylsalicylic acid in the solvent mixture; type: physicochemical; settings: solvent mixture: propylene glycol about 10% by volume, glycerine about 2 percent by volume, balance isopropyl alcohol/water solution with isopropyl alcohol about 70% by volume

## CC(=O)Oc1ccccc1C(=O)O [acetylsalicylic acid]
[1]
  solubility in water or water based substances: virtually insoluble
[2]
  saturation concentration of the acetylsalicylic acid in this solvent mixture: about 18 % by weight per unit volume
